Results reported in patent publication US20140161720A1, “TREATMENT OF ANGIOGENIC- OR VASCULAR-ASSOCIATED DISEASES” (THE GENERAL HOSPITAL CORPORATION, priority 2011, published 2014).
Entries after “also recorded” stand apart in the source; their conditions may differ.

Columns and labels:
[1] = test system: orthotopic 4T1 mammary tumors; test: Vascular parameters in tumors by intravital multiphoton microscopy; assay type: in vivo, female SCID mice; conditions: 37.5 mg/kg daily i.p.
Protocol: Female SCID mice bearing orthotopic GFP-labeled 3 mm 4T1 mammary tumors were treated with five daily i.p. injections (day 0-day 4) of 37.5 mg/kg DAL or saline. Implanted mammary fat pad windows (35) were surgically implanted to facilitate intravital imaging through multiphoton microscopy with a custom-built multiphoton microscope with a 20×0.95NA objective (Olympus), and mice were imaged by fluorescent angiography following retro-orbital injection of 60 uL of 10 mg/mL TAMRA-dextran (2MDa molecular mass). Images were collected on day 0, day 2, and day 4, with the first images collected immediately before the first treatment. The 2×2 grids were imaged in the sample plane (630-μm) field of view at each position) tissue from 0-200 μm depth. To measure vascular parameters in the mice over the course of treatment, a custom 3D vascular tracing and analysis software package based on MATLAB (The Mathworks) was applied to the images.
To study these effects quantitatively, fluorescent angiographies were conducted in female SCID mice bearing orthotopic 4T1 mammary tumors in mammary fat pad windows via intravital multiphoton microscopy (FIG. 3A) (22-24). These mice were treated with 37.5 mg/kg DAL or saline daily for 5 days by i.p. injection. It was determined that DAL treatment decreases tumor vascular volume fractions—a measure of vascular density—compared with saline treatment (FIG. 3B, p<0.002, day 4).

[2] = set-up: species or system female SCID mice; conditions: mouse, in vivo, ip, 37.5 mg/kg
Protocol: To assess the anti-tumor effects of DAL, female SCID mice bearing orthotopic 4T1 or E0771 mammary tumors were treated with daily i.p. injections of 37.5 mg/kg DAL or saline. In order to calculate tumor volumes, the major and minor axis diameters were measured with calipers and the tumor volume was calculated by assuming a spherical shape based on the average of these two dimensions. The tumors were implanted in the mammary fat pad and allowed to grow to a starting size (small ˜100 mm^3 tumors for E0771, large ˜200 mm^3 tumors for 4T1) over ˜2 weeks. To ensure that tumors in the two groups were of similar growth rates, the treatment with saline or DAL was begun in pairs of tumors with similar sizes and growth times. Tumor volumes were measured every other day until the tumors reached an average of ˜10 mm in diameter. Tumor growth was quantified with the doubling rate, and calculated by fitting an exponential growth curve to the data for tumor size versus time.
As shown in Example 3, DAL has an antivascular effect in orthotopic mammary tumors in mice. Thus, the antitumor effect of DAL was next assessed. […] The effect of DAL on the growth of orthotopic 4T1 and E0771 mammary tumors with daily treatment of DAL or saline was evaluated (FIG. 4A). 37.5 mg/kg of DAL was used for these experiments based on the pharmacokinetics results as well as in vitro and in vivo data. […]

recombinant purified IDO = recombinant purified IDO (Homo sapiens, UniProt P14902); test: Enzymatic assay with recombinant purified IDO; assay type: biochemical
Sequence of recombinant purified IDO (P14902 whole entry): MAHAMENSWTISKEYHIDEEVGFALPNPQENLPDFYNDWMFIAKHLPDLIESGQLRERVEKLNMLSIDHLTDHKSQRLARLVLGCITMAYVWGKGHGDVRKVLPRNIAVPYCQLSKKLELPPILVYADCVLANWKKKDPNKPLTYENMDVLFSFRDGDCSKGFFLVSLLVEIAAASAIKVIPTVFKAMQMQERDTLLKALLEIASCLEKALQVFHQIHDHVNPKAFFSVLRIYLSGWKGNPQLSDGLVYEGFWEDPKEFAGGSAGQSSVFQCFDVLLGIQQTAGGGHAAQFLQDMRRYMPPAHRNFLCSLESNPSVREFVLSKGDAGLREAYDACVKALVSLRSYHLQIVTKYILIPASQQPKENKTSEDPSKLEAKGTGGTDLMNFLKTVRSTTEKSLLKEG
Protocol: To determine whether DAL is an immuno-modulator, the effect of DAL on IDO activity was measured. To monitor IDO enzymatic activity, HEK 293 cells were engineered to express IDO and treated with DAL in a 10-dose IC50 mode with threefold serial dilutions. The IDO activity was analyzed by the presence of kynurenine (the first stable catabolite downstream of IDO) with a spectrophotometric assay (Katz et al., 2008; Littlejohn et al., 2000). […] Because DAL inhibits recombinant purified IDO in the enzymatic assay, it is likely that DAL physically interacts with IDO1, forming a complex that represses IDO1 activity. To elucidate a possible structural basis for this inhibition, comparative modeling and molecular docking were used (FIGS. 9A-9D). […] These residues are disordered in all existing IDO structures (Thackray et al., 2008); however, in the tryptophan-bound bacterial TDO structure, the corresponding loop is well-ordered and forms a “lid” on the binding pocket. Similar to human IDO1, bacterial TDO is a heme enzyme catalyzing the conversion of tryptophan into N-formyl-kynurenine. The binding site residues are strongly conserved between the two enzymes: in particular, the lid sequences share the common motif [K/R]GTGG[T/S]. It was therefore assessed that if lid closure may be a critical step for the efficient reaction catalysis by IDO. […]

With `CC1(C)C=CC2=C(O1)C(=O)c1ccccc1C2=O` [DAL, dehydro-alpha-lapachone] the “total tumor vascular length (normalized to tumor volume)” value ([1]; day 2 and day 4, versus saline) was “lower”, the “tumor vascular volume fraction” value ([1]; day 4, versus saline) was “decreases; also recorded: lower” and the “mean tumor vascular diameter” value ([1]; versus saline) was “remains the same; also recorded: no significant difference”. For the same compound, the “weight loss or other signs of toxicity” value [2] was “no weight loss or other noted signs of toxicity” and the “inhibition of recombinant purified IDO” value (recombinant purified IDO) was “inhibits”.
